# From patent EP0942896B1, “SUBSTITUTED PHENOLS AND THIOPHENOLS USEFUL AS ANTIOXIDANT AGENTS” (Aventis Pharmaceuticals Inc., priority 1996, dated 1998)
# Where two headings read alike, the source gives them in different places.
# What was measured:
# Type in all cases: in vivo, Female New Zealand White rabbits
# [1] = HPLC quantitation of compound and metabolite concentration in rabbit serum and liver; conditions: female, New Zealand White, oral, 0.4 % in chow, diet 0.4%, 7 days, mean N = 5
# From the text: (§1) Perform five independent experiments in the following manner. Each study has a control group and 1-5 groups treated with MDL compound (N = 5 per group). Feed Female New Zealand White rabbits (Hazelton, ∼ 2.0-2.3 kg) 0.2% cholesterol enriched rabbit chow (Purina #5322) with or without 0.4% MDL compound. Solubilize the MDL compounds in 100% ethanol. Spray the chow with the MDL mixtures and allow to dry overnight in a chemical fume hood. Spray control chow with ethanol. Feed rabbits 100 grams food per day for 7 days (0.6% MDL 103,491 were fed for 14 days); make available water ad libitum. On day 7, bleed (~ 2 mL) rabbits (fasted overnight) from a marginal ear vein. Euthanize rabbits by carbon dioxide overdose. Record the total body and liver weights in grams. Record food as grams • day^-1 · rabbit^-1. Use aliquots of fresh serum for clinical chemistries, lipoprotein cholesterol determination, thiobarbituric acid reactive substances (TBARS) and compound and metabolite concentrations in serum. Freeze livers (∼ 5 gram aliquots) at -20°C for compound and metabolite concentration determination at a later time.
# Determine serum and liver concentrations of parent compounds and the metabolites, bisphenol and diphenoquinone, by reverse phase HPLC using a Waters 990 Powerline system. […] Calculate compound concentrations from known quantities of authentic parent compounds after correction for recovery. […]
# [2] = tested on: oxidation of serum lipids; assay: TBARS assay on serum of treated cholesterol-fed rabbits (CuSO4-initiated oxidation); conditions: % of control, thiobarbituric acid reactive substances as nmole MDA, diet 0.4%, 7 days, N = 5
# From the text: as §1, with “Freeze livers (∼ 5 gram aliquots) at -20°C for compound and metabolite concentration determination at a later time.” left out
# TBARS are a […] indication of the oxidation of lipids in a sample. […] Upon incubation with thiobarbituric acid, the absorbance of the aldehydes can be detected at 530-540 nm. […] Measure absorbances at 540 nm using a Biotek model EL311 microplate reader. The nmoles of MDA produced are calculated from a standard curve of 0 to 10 nmoles of MDA prepared from malonaldehyde bis(dimethylacetal). […]
# [3] = Animal parameters (food, body weight, liver weight/body weight) in cholesterol-fed rabbits; conditions: % of control, diet 0.4%, 7 days, 0.2% cholesterol chow, N = 5
# From the text: as §1
compound,measurement,setting,value
"CC(C)=CCC[C@H](C)CCOc1cc(C(C)(C)C)c(O)c(C(C)(C)C)c1 [MDL 103,294, Phenol, 2,6-bis(1,1-dimethylethyl)-4-[(3,7-dimethyl-6-octenyl)oxy]-, (S)-]",concentration at 7 day,"[1]; parent compound concentration in rabbit liver, read-out: Liver Parent",77000 ng/g
same,concentration at 7 day,"[1]; parent compound concentration in rabbit serum, read-out: Serum Parent",19800 ng/mL
same,TBARS,[2],35%
same,food,[3]; grams eaten per day per rabbit,103%
same,lw/bw,[3]; liver weight / body weight,105%
same,body wt.,[3]; weight in grams,100%
